Results taken from ChEMBL document CHEMBL1148180, “The isolation and structural elucidation of four novel triterpene lactones, pseudolarolides A, B, C, and D, from Pseudolarix kaempferi” (J Nat Prod, 1993).
Converted amounts (≈) assume the structure as drawn. The source made the active and inactive calls. No cut-off for these calls is given here.

Columns and labels:
A549 = test: Cytotoxicity against human A549 cells; format: functional, cell-based
Human alphaherpesvirus 2 = test: Antiviral activity against HSV2 in african green monkey Vero cells assessed as inhibition of viral plaque formation; format: functional, organism-based
KB = test: Cytotoxicity against human KB cells; format: functional, cell-based
P388 = test: Cytotoxicity against mouse P388 cells; format: functional, cell-based
TE-671 = test: Cytotoxicity against human TE671 cells; format: functional, cell-based
HCT-8 = test: Cytotoxicity against human HCT8 cells; format: functional, cell-based

Row | SMILES | EC50 (A549; a549) | Activity (Human alphaherpesvirus 2) | EC50 (KB; kb) | EC50 (P388; p388) | EC50 (TE-671) | EC50 (HCT-8; hct-8) | EC50 (A549; Homo sapiens, A549, read-out: EC50) [µg/mL] | EC50 (KB; Homo sapiens, KB, read-out: EC50) [µg/mL] | EC50 (P388; Mus musculus, P388, read-out: EC50) [µg/mL] | EC50 (HCT-8; Homo sapiens, HCT-8, read-out: EC50) [µg/mL]
1 | C[C@@H]1C[C@]2(C[C@@H](C)[C@H]3[C@@H](C[C@@]4(C)[C@@H]5CC[C@H]6C(C)(C)C(=O)CC[C@@]67C[C@@]57CC[C@]34C)O2)OC1=O [PSEUDOLAROLIDE A] | Not Active | Active | Not Active | Not Active | Not Active | Not Active |  |  |  | 
2 | CC1=C[C@]2(C[C@@H](C)[C@H]3[C@@H](C[C@@]4(C)[C@@H]5CC[C@H]6C(C)(C)C(=O)CC[C@@]67C[C@@]57CC[C@]34C)O2)OC1=O [PSEUDOLAROLIDE B] |  | Active |  |  | Not Active |  | 0.67 (≈ 1.44 µM) | 0.49 (≈ 1.05 µM) | 0.79 (≈ 1.69 µM) | 0.73 (≈ 1.56 µM)
3 | COC(=O)CC[C@]12C[C@]13CC[C@]1(C)[C@H]4[C@H](C)C[C@]5(C[C@@H](C)C(=O)O5)O[C@@H]4C[C@@]1(C)[C@@H]3CC[C@H]2C(C)(C)O [PSEUDOLAROLIDE C] | Not Active |  | Not Active | Not Active | Not Active | Not Active |  |  |  | 
4 | C[C@@H]1C[C@]2(C[C@@H](C)[C@H]3[C@@H](C[C@@]4(C)[C@@H]5CC[C@H]6C(C)(C)OC(=O)CC[C@@]67C[C@@]57CC[C@]34C)O2)OC1=O [PSEUDOLAROLIDE D] | Not Active |  | Not Active | Not Active | Not Active | Not Active |  |  |  | 
